Laboratory results from patent EP0427747B1, “SUBSTITUTED PHENYLACETONITRILES USED TO OVERCOME RESISTANCE TO DRUGS IN ANTI-MALARIAL THERAPY” (priority 1988, dated 1990).
Counter-ions that a name gives are not always drawn.

Legend:
in vivo [1] = details: rat, iv
Description: Das 3. Modell untersucht ebenfalls am Ganztier die Wirkung der Testsubstanz auf das Herz.
(§1) Angegeben ist jeweils, wieviel größer die Dosis der Testsubstanz sein darf als bei racemischem Verapamil, um den gleichen caridovasculären Effekt auszulösen.
(§2) Der Selektivitätsindex S der Tabelle ist das Produkt dieses Faktors mit dem AEI und beschreibt somit, um wieviel schwächer als beim racemischen Verapamil die cardiovasculären Effekte der Testsubstanz sind, wenn sie in der Resistenzbrechnung von Malariamitteln in equieffizienten Dosen eingesetzt werden.

P. yoelii NS = experiment: Test model II: blood schizontocidal action in infected mice, 4-day treatment; format: in vivo, Plasmodium yoelii ssp; details: for % Parasitämie: mice, daily dose 10,0 mg/kg test substance plus 0,3 mg/kg Chloroquin, s.c., 4 days, parasitaemia one day after treatment
Description: Zur Bestätigung und weiteren Differenzierung der resistenzbrechenden Wirkung wurden Mäuse nach dem in Ann. Trop. Med. Parasit., 72, 23 (1978) beschriebenen Modell (vgl. auch Exp. Parasitol. 17, 89 (1965), Anm. Trop. Med. Parasit. 69, 155 (1975) mit parasitär befallenden Erythrocyten beimpft und 1 Tag nach der Injektion an vier aufeinanderfolgenden Tagen behandelt. Einen Tag nach der Behandlung wurde die Parasitämie bestimmt.
Eperythozoon-coccoides-freie, männliche, Schweizer Albino-Mäuse, Gewicht zwischen 18 und 20 g, werden für alle Prüfungen benutzt.
Sie werden in Räumen mit kontrollierter Temperatur (22° + 2°C) in Kunststoffkäfigen zu je 5 Mäusen pro Käfig gehalten.
P. yoelii NS, gewonnen aus P. yoelii N: mäßig resistent gegenüber Chloroquin. Erhaltung durch zyklische Passage durch Anopheles stephensi und unter medikamentöser Belastung in der Maus (60 mg/kg s.c. einmal während der Passage) (für nähere Erläuterung siehe Ann. Trop. Med. Parasit., 72, 23 (1978)).
Männliche Mäuse werden intravenös mit parasität befallenden Erythrozyten (10⁷) vom P. yoelli NS Stamm beimpft. Danach werden die Tiere an vier aufeinanderfolgenden Tagen beginnend am Tag der Infektion einmal täglich behandelt. Die Verbindungen werden mit ®Tween 80 in sterilem, destilliertem Wasser gelöst oder suspendiert und subkutan verabreicht. In Fällen, in denen sich die Zubereitung einer wäßrigen Lösung als äußerst schwierig erweist, wird die Prüfsubstanz zunächst in Dimethylsulfoxid gelöst. Danach werden wäßrige Verdünnungen zum Gebrauch hergestellt. Die Parasitämie wird am Tag nach der letzten Behandlung bestimmt. Die unterdrückung der Parasiten im Vergleich zur unbehandelten Kontrolle, wird mittels Probitanalyse der log-Dosis-Wirkungskurve berechnet.
Mäuse, die mit dem chloroquin-resistenten Plasmodium yoelii ssp infiziert waren, wurden mit Chloroquin über 4 Tage subkutan behandelt, wie unter II.2 beschrieben.
Einen Tag nach der Behandlung wurde die Parasitämie bestimmt und mit der Kontrolle verglichen.
Der AEI (Activity Enhancement Index) ist der Quotient aus der ED₉₀ für Chloroquin alleine und der ED₉₀ für Zusatz von 10 mg/kg Testsubstanz.

[2] = test system: humanen Erythrocyten, die mit resistenten Plasmodien (Pl. falciparum) infiziert waren; experiment: Test model I: radiolabelled hypoxanthine incorporation (microdilution technique), alone and in combination with the antimalarial; format: cell-based; details: combination with Chloroquine; 1,0 = additivity, <0,5 = synergism
Description: Alle Substanzen wurden zunächst alleine und dann in Kombination mit dem Antimalaria-Mittel an humanen Erythrocyten, die mit resistenten Plasmodien (Pl. falciparum) infiziert waren, getestet. Der Einbau von radioaktiv markiertem Hypoxanthin diente als Maß für das Wachstum der Parasiten. Nach der Microdilutions-Technik (Antimicrob. Agents Chemotherapy 16,710 (1979)), wurde dabei für die erfindungsgemäßen Substanzen allein keine oder nur eine geringe Hemmung des Hypoxanthin-Einbaus gefunden. In Kombination mit einem Malariamittel wurde dagegen eine deutlich synergistische Hemmung beobachtet. Die Auswertung erfolgte über den FIC-Index (eine mathematische Repräsentation eines Isobologramms). Der Wert 1,0 bedeutet Additivität der Wirkungen, ein Wert <0,5 Synergismus. Für R-Verapamil und Chloroquin erhält man den Wert 0,56. [formula] IC₅₀ = Konzentration der Prüfsubstanz, die eine 50 %ige Hemmung der Parasiten bewirkt. [A] = gemessene IC₅₀ der Substanzu A in Gegenwart einer definierten (z.B. 500 bis 125 000 ng/ml) Menge der Substanz B. [B] = gemessene IC₅₀ der Substanz B in Gegenwart einer definierten (z.B. 500 bis 125 000 ng/ml) Menge der Substanz A. IC50A = IC₅₀ der Substanz A alleine gegeben IC50B = IC₅₀ der Substanz B alleine gegeben.
Die folgenden Werte wurden in der Kombination mit Chloroquine bestimmt.

in vitro = details: rat, aortic strip
Description: (§3) Weiter umfaßt die Tabelle drei praxisübliche Testmodelle auf cardiovasculäre Effekte. Am Gefäßstreifen der Ratte (rat aortic strip) (1. Modell) wird die Dosis bestimmt, die zu einer 50 %igen Relaxation führt, sie ist ein Maß für die gefäßerweiternde und damit blutdrucksenkende Wirkung einer Substanz. Das 2. Modell untersucht die blutdrucksenkende Wirkung am Ganztier (Ratte), bei intravenöser Gabe).
as §1, §2

in vivo [3] = details: rat, iv; remark: listed apart in the source
Description: as §3, §1, §2

[4] = test system: Gefäßstreifen der Ratte (rat aortic strip); experiment: in vitro
Description: as §3, §1, §2

[5] = AEI relative to S,R-Verapamil = 1
[6] = Activity Enhancement Index: ED90 of Chloroquin alone divided by ED90 with addition of 10 mg/kg test substance

Compound | EKG (AV-Block) Ratte i.v. ED (in vivo [1]) | AEI (10 mg/kg) (P. yoelii NS; [5]) | AEI (10 mg/kg) (P. yoelii NS; [6]) | FIC-Index [2] | selectivity ratio (in vitro) | % Parasitämie (P. yoelii NS) | Blutdrucksenkung ED₅₀ (in vivo [3]) | Ratten Aortenstreifen ED₅₀ [4] | selectivity ratio (in vivo [1]) | selectivity ratio (in vivo [3])
COc1ccc(CCN(C)CCCC(C#N)(c2ccc(OC)c(OC)c2)C(C)C)cc1OC (racemic) [S,R-Verapamil, Verapamil, reference compound] | = 1 | = 1 x | 2,56 |  |  |  |  |  |  | 
COc1ccc(CCN(C)CCC[C@](C#N)(c2ccc(OC)c(OC)c2)C(C)C)cc1OC [R-Verapamil, reference compound] | 4,6 | 1,6x | 4,15 | 0,56 | 10.2 | 14,2% |  |  |  | 
CC(C)[C@@](C#N)(CCCN(C)CCc1ccccc1)c1ccccc1 [S-Emopamil, (-)-(S)-1,7-Bis-(phenyl)-3-methylaza-7-cyano-8-methyl-nonan-hydrochlorid] | 2,15 | 1,8x | 4,5 | 0,19 | 13.5 | 6,7% | 2,7 | 7,7 |  | 
COc1ccc(CCN(C)CCCC(C#N)(c2cc(OC)c(OC)c(OC)c2)C(C)C)cc1OC (single isomer, unassigned; (+)) [(+)-Gallopamil, (+)-1-(3,4-Dimethoxyphenyl)-3-methylaza-7-cyan-7-(3,4,5-trimethoxyphenyl)-8-methylnonan-hydrochlorid] | 4,6 | 1,7x | 4,4 | 0,53 | 21.6 | 8,6% | 3,4 | 12,6 |  | 
CC(C)C(C#N)(CCCNCCc1ccccc1)c1ccccc1.Cl (stereo not shown) [Noremopamil, 1,7-Bis-(phenyl)-3-aza-7-cyano-8-methyl-nonan-hydrochlorid] | 4,6 | 1,60x | 4,1 | 0,19 | 4.6 |  | 4,3 | 2,9 | 6.9 | 6.9
